Tested on: Vibrio fischeri NRRL-B-11177
Assay: Microtox™ toxicity test (light emission of bioluminescent bacterium)
Format: cell-based
Details: constituent at the loading given; for EC50 Result (%): normally 50% light reduction over 15 minute at 15°C
Method: Under the Microtox™ protocols, the viability of known bacterial cultures is measured within a sample to produce a numeric result as well as a “pass/fail” indication.
The test is performed by rehydrating freeze dried cultures of the organism, supplied as the Microtox™ reagent and determining the initial light output of homogenized bacterial suspensions. Aliquots of osmotically adjusted sample and sample dilutions are added to the bacterial suspension, and light measurements are made at specific intervals (generally at 5 or 15 minutes) after exposure to test samples. The diluent control (blank) is used to correct time-dependant change in light output.
The Microtox™ test endpoint is measured as the effective or inhibitory concentration of a test sample that reduces light emission by a specific amount under defined conditions of time and temperature. Normally, this is expressed as an ECSO(15) or ICSO(15) which is the effective concentration or inhibitory concentration of a sample that reduces light emission of the test organism by 50% over a 15 minute test period at 15°C.
The EC50 or IC50 is calculated by log linear plotting of Concentration (C) vs percent Light Decrease (percent A), or more precisely by plotting Gamma Q (which is the corrected ratio of the amount of light lost to the amount of light remaining) versus Concentration on a log-log graph. Either a hand calculator or computer program data reduction systems may be used to calculate Gamma and the corresponding EC50 or ICSO values.
Thus, the desired loading for a fracturing fluid is determined and the viscosifier diluted to that loading in water and subjected to standardized Microtox™ testing.

| Compound | EC50 Result (%) | Pass/Fail |
| --- | --- | --- |
| [Cl-].[K+] [4 wt % KCl water, KCl] | >91 |  |
| O=CO [0.002 wt % formic acid, formic acid] | >91 | Pass (>75% EC50 result is required for pass) |
| hemicellulase enzyme [hemicellulase enzyme (0.02 wt %)] | >91 |  |
| C[Si]1(C)O[Si](C)(C)O[Si](C)(C)O[Si](C)(C)O1 [octamethylcyclotetrasiloxane] | 82 | Pass (>75% EC50 result is required for pass) |

Source: patent US8387699B2, “Green coal bed methane fracturing fluid compositions, methods of preparation and methods of use” (Calfrac Well Services Ltd., priority 2008, dated 2013)
